Tested on: skin model (EFT-400, MatTeK)
Experiment: Electron microscope observation of skin model cultured with MMP inhibitor and/or heparanase inhibitor
Type: cell-based, human
Settings: electron micrographs; result in words
Procedure: A skin model (EFT-400, MatTeK) was cultured in a specialized medium (EFT-400-ASY, MatTeK). Dimethylsulfoxide (DMSO) and ethanol were added to the specialized medium to a final concentration of 0.1% to serve as a control group, 50 mM 1-[4-(1H-benzoimidazol-2-yl)-phenyl]-3-[4-(1H-benzoimidazol-2-yl)-phenyl]-urea (DMSO solvent) was added to the specialized medium to a final concentration of 50 μM to serve as a heparanase inhibitor group, 10 mM N-hydroxy-2-[[(4-methoxyphenyl)sulfonyl] (3-picolyl)amino]-3-methylbutanamide hydrochloride (CGS27023A, ethanol solvent) was added to the specialized medium to a final concentration of 10 μM to serve as an MMP inhibitor group, and 50 mM 1-[4-(1H-benzoimidazol-2-yl)-phenyl]-3-[4-(1H-benzoimidazol-2-yl)-phenyl]-urea (DMSO solvent) and 10 mM CGS27023A (ethanol solvent) were added to the specialized medium to a final concentration of 50 μM and 10 μM, respectively, to serve as a heparanase inhibitor+MMP inhibitor group, followed by culturing.
The aforementioned skin model was cut in half after culturing, fixed with Zamboni's fixative and post-fixed with osmic acid, followed by embedding in resin in accordance with established methods. Tissues were observed by preparing ultra-thin sections and staining with uranyl acetate followed by observing with an electron microscope (JEM-1230, JEOL). […]

fibroblasts present in dermis directly beneath basement membrane (FIG. 2)	Compound
normal fibroblasts	COc1ccc(S(=O)(=O)N(Cc2cccnc2)C(C(=O)NO)C(C)C)cc1.Cl (centres unmarked) [Group A, N-hydroxy-2-[[(4-methoxyphenyl)sulfonyl](3-picolyl)amino]-3-methylbutanamide hydrochloride]
normal fibroblasts	O=C(Nc1ccc(-c2nc3ccccc3[nH]2)cc1)Nc1ccc(-c2nc3ccccc3[nH]2)cc1 [Group B, 1-[4-(1H-benzoimidazol-2-yl)-phenyl]-3-[4-(1H-benzoimidazol-2-yl)-phenyl]-urea]

Source: patent US20170071922A1, “ARTIFICIAL SKIN” (Shiseido Company, Ltd., priority 2010, published 2017)
